In the pKa sets of Baltruschat and Czodrowski (2020) one finds pKa data, which are given here for 70 compounds.

Molecules are shown by their SMILES.

Where the note is “acidic group”, `Cn1cc(O)[nH+]c1N` registered a pKa of 4.9.
Turning to `CC[C@H]1CN2CC[C@@H]1C[C@H]2[C@H](O)c1ccnc2ccc(OC)cc12`, the pKa (basic group) turned out to be 8.67.
Regarding `Oc1ccc(O)c2ccccc12`, for the setting “acidic group”, the pKa came to 9.25.
On to `CCCCCC(=O)O`, for which the pKa (acidic group) stood at 4.85.
`C[NH+](C)CCCN` yielded a pKa (basic group) of 6.74.
As for `CCCN(CCC)CCC`, the pKa (basic group) was 10.5.
Same read-out and setting: the same measure for `CNc1ccncn1`: 6.12; for `NC(=S)C1(N)CCCCC1`: 7.23.
As for `CN(C)c1cccc2c(S(=O)(=O)[N-]CCN3CCNCCNCCNCC3)cccc12`, the pKa (basic group) turned out to be 11.8.
Still for that read-out and setting: for `COc1cc(S(C)=O)ccc1-c1nc2cnccc2[nH]1` (configuration not stated) the value was 6.16; for `O=C(CCCN1CCC(O)(c2ccccc2)CC1)c1ccccc1`, 8.4.
Compound `CCCCCCCCCCNCCC(=O)[O-]` displayed a pKa (basic group) of 10.6.
`C[C@H](N)Cc1ccc(O)cc1` returned a pKa (basic group) of 9.3.
In the case of `Cc1cnc(C)c(C)n1`, the pKa (basic group) worked out at 2.65.
Consider `CNCCCC(=O)[O-]`, for which the pKa (basic group) worked out at 10.8.
Where the note is “acidic group”, `C[n+]1ccc(O)nc1` registered a pKa of 1.91.
`NC1(C(=O)[O-])CCCC1` yielded a pKa (basic group) of 10.1.
For `[NH3+]CCc1ccncc1`, the pKa (basic group) was 4.98.
On the same count and under the same terms, the same measure for `CN(C)C(C)(C)C=O`: 8.4; for `Cc1cccc(C(C)c2c[nH]cn2)c1C` (configuration not stated): 7.04.
The compound `O=C([O-])[C@@H]1CC[C@@H](C(=O)O)[Se][Se]1` displayed a pKa (acidic group) of 3.67.
On to `CC(O)C[NH+](CCCN1CCOCC1)CC(C)O` (configuration not stated), for which the pKa (basic group) amounted to 5.5.
As for `CCCCN(CC1CO1)CC1CO1` (configuration not stated), the pKa (basic group) came to 6.91.
In turn, `CSc1ccc(N)cc1I` displayed a pKa (basic group) of 3.44.
In turn, `O=S(=O)(NBr)c1ccccc1` showed a pKa (acidic group) of 4.95.
`CC(C)C[C@H](N)C(N)=O` yielded a pKa (acidic group) of 7.84.
For the setting “basic group”, `CC(=O)Nc1ccc(S(=O)(=O)Nc2ccccn2)cc1` showed a pKa of 2.03.
The compound `O=[N+]([O-])c1ccc(O)c(O)c1` gave a pKa (acidic group) of 6.74.
For the setting “basic group”, `[S-]c1ccc2ccccc2n1` showed a pKa of 10.2.
As for `Cn1cnc(C(=O)[O-])c1C(=O)[O-]`, the pKa (basic group) was found to be 8.
In the case of `Nc1c2ccccc2[nH+]c2cccc(O)c12`, the pKa (acidic group) is 5.61.
Compound `CC(C)N(C)/C=N/c1ccc(-c2c[nH]cn2)cc1` came in with a pKa (basic group) of 8.72.
Compound `C[N+](C)(C)CCc1cccc(O)c1` displayed a pKa (acidic group) of 9.43.
Compound `Cc1cc([N+](=O)[O-])cc(C)c1N` gave a pKa (basic group) of 0.98.
Compound `CC(C)=NNS(C)(=O)=O` had a pKa (acidic group) of 8.5.
`Nc1cccc2cncnc12` yielded a pKa (basic group) of 2.81.
The same measure, in the same setting: for `Cc1cnc2c(C)ccc([N+](=O)[O-])c2c1NCCC[NH+](C)C` the value was 6.1.
With `CNC(C)CC1CCCCC1` (configuration not stated), where the note is “basic group”, the pKa is 10.5.
Still for that read-out and setting: the same measure for `Cc1ccccc1/C(=N/CCCN(C)C)c1ccc2ccccc2c1`: 8.9; for `Cc1cccc2ncccc12`: 5.
As for `O=C(O)C1Cc2ccccc2O1` (configuration not stated), for the setting “acidic group”, the pKa was 3.25.
As to `O=C(O)[c+]1cccccc1`, the pKa (acidic group) is 3.29.
For the compound `CNCCCN`, the pKa (basic group) amounted to 10.7.
Consider `c1ccc(NC2CCCC2)cc1`, for which, under “basic group”, the pKa turned out to be 5.3.
The compound `COc1ccc(NC(=S)c2ccc(Cl)cc2)cc1` showed a pKa (acidic group) of 11.3.
Consider `[NH3+]C/C=C/C(=O)O`, for which the pKa (acidic group) was determined as 3.55.
For `CN(C)Cc1cc(Cl)ccc1[O-]`, the pKa (basic group) was 11.
Take `O/N=C/c1ccccn1`: the pKa turned out to be 10.1 (acidic group) and 3.4 (basic group).
On to `CN(C)c1ccc(N(C)C)cc1`, for which the pKa (basic group) worked out at 6.37.
The same measure, in the same setting: the same measure for `Cc1cc(O)n(-c2nc(C)c(C)c([O-])n2)n1`: 10.3.
Under “acidic group”, `CCCO` gave a pKa of 16.
As to `N#Cc1c(-c2nc3cc(Cl)ccc3o2)c(=O)oc2cc(O)ccc12`, under “acidic group”, the pKa came out at 6.
Turning to `CC[NH+](CC)CCNc1nc(C)cc(N)n1`, the pKa (basic group) was 6.97.
Where the note is “acidic group”, `CC(=O)C1CCCC1=O` (configuration not stated) registered a pKa of 7.82.
In the case of `CC1SC(C)(C(=O)O)OC1=O` (configuration not stated), the pKa (acidic group) stood at 1.94.
Take `C1=C(c2ccco2)C2CCN1CC2`: for the setting “basic group”, the pKa is 8.92.
`CC(C)(C)P(=O)(O)C(C)(C)C` yielded a pKa (acidic group) of 4.24.
Take `c1ccc2cc3[nH]cnc3cc2c1`: the pKa is, setting by setting: (acidic group) 12.5; (basic group) 5.24.
For the compound `CO[n+]1ccc(O)cc1`, the pKa (acidic group) was 2.57.
`COC(=O)c1ccccn1` came in with a pKa (basic group) of 2.21.
In turn, `NC(N)=S` had a pKa (basic group) of -0.96.
Turning to `[NH3+]CCCCCc1ccccn1`, where the note is “basic group”, the pKa amounted to 5.7.
As to `CC[N+](O)(CC)CC`, where the note is “acidic group”, the pKa amounted to 5.13.
The compound `CCN(CC)CCC[C@@H](C)[C@H]1CC[C@H]2[C@@H]3CC[C@@H]4C[C@H](O)CC[C@]4(C)[C@H]3C[C@H](O)[C@]12C` yielded a pKa (basic group) of 10.3.
The compound `C=CC(C)(C)NC(C)(C)C=C` gave a pKa (basic group) of 10.1.
For `CO[n+]1ccccc1N`, under “acidic group”, the pKa was 12.4.
As for `N#CC(CCN1CCCCC1)(c1ccccc1)c1ccccc1`, the pKa (basic group) worked out at 8.07.
`CCc1nnn[nH]1` showed a pKa (acidic group) of 5.59.
`Nc1ccc(C=O)cc1` had a pKa (basic group) of 1.74.
In the case of `CC(C)C1=CC2=CC[C@H]3[C@@](C)(CCC[C@]3(C)C(=O)O)[C@@H]2CC1`, the pKa (acidic group) is 6.4.

Usually pKa stands for the pH at which an ionisable group is half protonated. Read a high pKa as a group that holds its proton tightly.
